These results are taken from US11739100B2, “2,3-dihydro-1h-imidazo{1,2-a}pyrimidin-5-one and this 1,2,3,4-tetrahydropyrimido{1,2-a}pyrimidin-6-one derivatives comprising a substituted morpholine, preparation thereof and pharmaceutical use thereof” (SANOFI, priority 2012, dated 2023).

pIC50: −log10 of the molar value. Bounds are passed on as bounds.

T1 sequence (Q8NEB9 whole entry): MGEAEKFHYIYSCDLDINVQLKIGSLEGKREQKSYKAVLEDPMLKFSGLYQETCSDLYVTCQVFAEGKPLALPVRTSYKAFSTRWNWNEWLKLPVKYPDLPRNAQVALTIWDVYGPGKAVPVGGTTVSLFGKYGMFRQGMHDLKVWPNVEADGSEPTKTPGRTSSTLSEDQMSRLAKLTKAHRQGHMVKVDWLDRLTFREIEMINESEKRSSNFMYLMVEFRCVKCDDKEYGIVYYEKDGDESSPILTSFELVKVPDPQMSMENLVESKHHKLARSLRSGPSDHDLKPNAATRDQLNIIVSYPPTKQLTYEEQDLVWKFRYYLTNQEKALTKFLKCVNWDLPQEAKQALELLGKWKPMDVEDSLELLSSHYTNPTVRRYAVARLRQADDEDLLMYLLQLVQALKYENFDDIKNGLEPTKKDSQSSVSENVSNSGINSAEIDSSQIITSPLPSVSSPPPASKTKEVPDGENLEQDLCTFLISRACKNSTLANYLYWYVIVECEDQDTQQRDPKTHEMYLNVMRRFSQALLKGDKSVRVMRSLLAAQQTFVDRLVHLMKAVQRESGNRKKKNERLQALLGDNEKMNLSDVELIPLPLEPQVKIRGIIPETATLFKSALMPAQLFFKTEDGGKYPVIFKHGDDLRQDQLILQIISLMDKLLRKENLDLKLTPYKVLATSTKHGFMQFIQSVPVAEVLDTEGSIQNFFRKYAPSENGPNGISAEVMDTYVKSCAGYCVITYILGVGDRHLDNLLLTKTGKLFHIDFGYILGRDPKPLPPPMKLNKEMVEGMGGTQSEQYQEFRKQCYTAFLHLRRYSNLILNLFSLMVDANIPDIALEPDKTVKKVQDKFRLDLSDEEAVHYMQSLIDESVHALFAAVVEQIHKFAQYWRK

The test concerns the target T1, recombinant Vps34 (Homo sapiens, UniProt Q8NEB9).
T1 construct: purchased Invitrogen PV5126
The experiment in a line: Phosphorylation of phosphatidylinositol (PI) by Vps34 in vitro, ADP detected by TR-FRET (HTRF Transcreener ADP). Type of test: biochemical. The conditions noted are these: 10 μM ATP, 55 μg/ml PI, approximately 3 nM Vps34, 1 hour at ambient temperature; absolute IC50, mean of two independent experiments; read-out: IC50 activity range.
`C[C@@H]1COCCN1c1cc(=O)n2c(n1)N(Cc1noc(C(C)(C)C)n1)[C@H](C(F)(F)F)CC2` [Example 203, (S)-9-(5-tert-Butyl-[1,2,4]oxadiazol-3-yl-methyl)-2-((R)-3-methylmorpholin-4-yl)-8-trifluoromethyl-6,7,8,9-tetrahydro-pyrimido[1,2-a]-pyrimidin-4-one]: the pIC50 (as a rule, the IC50 on a negative log10 scale, so that one unit is a factor of ten) was greater than 8.00.
Regarding `C[C@@H]1COCCN1c1nc2n(c(=O)c1F)CC[C@@H](C(F)(F)F)N2CCO` [Example 204, (S)-3-Fluoro-9-(2-hydroxyethyl)-2-((R)-3-methylmorpholin-4-yl)-8-trifluoromethyl-6,7,8,9-tetrahydro-pyrimido[1,2-a]-pyrimidin-4-one], the pIC50 was greater than 8.00.
As for `C[C@H](O)CN1c2nc(N3CCOC[C@H]3C)cc(=O)n2CC[C@H]1C(F)(F)F` [Example 205, (S)-9-((S)-2-Hydroxy-propyl)-2-((R)-3-methylmorpholin-4-yl)-8-trifluoromethyl-6,7,8,9-tetrahydro-pyrimido[1,2-a]-pyrimidin-4-one], the figure is greater than 8.00.
Take `CO[C@H](CN1c2nc(N3C[C@H]4CC[C@@H](C3)O4)cc(=O)n2CC[C@H]1C(F)(F)F)c1ccccc1` [Example 206, (S)-9-((S)-2-Methoxy-2-phenylethyl)-2-(1R,5S)-8-oxa-3-aza-bicyclo[3.2.1]oct-3-yl-8-trifluoromethyl-6,7,8,9-tetrahydro-pyrimido[1,2-a]-pyrimidin-4-one]: the pIC50 is greater than 8.00.
Turning to `Cc1noc(CN2c3nc(N4CCOC[C@H]4C)c(F)c(=O)n3C[C@@]2(C)C(F)(F)F)n1` [Example 207, (S)-6-Fluoro-2-methyl-7-((R)-3-methyl-morpholin-4-yl)-1-(3-methyl-[1,2,4]oxadiazol-5-yl-methyl)-2-trifluoromethyl-2,3-dihydro-1H-imidazo[1,2-a]-pyrimidin-5-one], the pIC50 is greater than 8.00.
In the case of `Cc1noc(CN2c3nc(N4CCOC[C@H]4C)cc(=O)n3C[C@@]2(C)C(F)(F)F)n1` [Example 208, (S)-2-Methyl-7-((R)-3-methylmorpholin-4-yl)-1-(3-methyl-[1,2,4]oxadiazol-5-yl-methyl)-2-trifluoromethyl-2,3-dihydro-1H-imidazo[1,2-a]-pyrimidin-5-one], the pIC50 was 7.00 to 8.00.
For `Cc1nc(CN2c3nc(N4CCOC[C@H]4C)cc(=O)n3CC[C@@]2(C)C(F)(F)F)no1` [Example 211, (S)-8-Methyl-2-((R)-3-methylmorpholin-4-yl)-9-(5-methyl-[1,2,4]oxadiazol-3-yl-methyl)-8-trifluoromethyl-6,7,8,9-tetrahydro-pyrimido[1,2-a]-pyrimidin-4-one] the value was greater than 8.00; for `C[C@@H]1COCCN1c1cc(=O)n2c(n1)N(CC(O)c1ccccn1)[C@H](C(F)(F)F)CC2` (stereo partly drawn) [Example 213, (S)-9-(2-Hydroxy-2-pyridin-2-ylethyl)-2-((R)-3-methyl-morpholin-4-yl)-8-trifluoromethyl-6,7,8,9-tetrahydro-pyrimido[1,2-a]-pyrimidin-4-one], greater than 8.00.
Consider `C[C@@H]1COCCN1c1cc(=O)n2c(n1)N(Cc1ccnn1C(F)F)[C@](C)(C(F)(F)F)CC2` [Example 214, (S)-9-(2-Difluoromethyl-2H-pyrazol-3-ylmethyl)-8-methyl-2-((R)-3-methylmorpholin-4-yl)-8-trifluoromethyl-6,7,8,9-tetrahydro-pyrimido[1,2-a]-pyrimidin-4-one], for which the pIC50 was greater than 8.00.
As for `C[C@@H]1COCCN1c1cc(=O)n2c(n1)N(Cc1ccon1)[C@](C)(C(F)(F)F)CC2` [Example 215, (S)-9-Isoxazol-3-yl-methyl-8-methyl-2-((R)-3-methyl-morpholin-4-yl)-8-trifluoromethyl-6,7,8,9-tetrahydro-pyrimido[1,2-a]-pyrimidin-4-one], the figure is greater than 8.00; as for `C[C@@H]1COCCN1c1cc(=O)n2c(n1)N(Cc1ccncc1)[C@H](C(F)(F)F)CC2` [Example 216, (S)-2-((R)-3-Methyl-morpholin-4-yl)-9-pyridin-4-ylmethyl-8-trifluoromethyl-6,7,8,9-tetrahydro-pyrimido[1,2-a]-pyrimidin-4-one], 7.00 to 8.00.
